Experimental data: patent US20240226069A1, “VAFIDEMSTAT FOR USE IN TREATING AUTISM SPECTRUM DISORDERS” (ORYZON GENOMICS, S.A., priority 2019, published 2024)

System: ASD patients
Test: Phase IIa clinical trial (REIMAGINE), ASD cohort treated with vafidemstat for 8 weeks
Format: in vivo, human
Conditions: 1.2 mg/day oral
Source text: As part of a Phase II a clinical trial (REIMAGINE trial, EudraCT number 2018-002140-88) to evaluate the safety, tolerability and efficacy of vafidemstat to treat aggression in adult population in patients with different CNS disorders, a cohort of ASD patients was recruited and treated with vafidemstat for 8 weeks. A summary of the protocol of this clinical trial and results obtained in the ASD cohort are provided below.
Reimagine is a unicenter, open-label, 1-arm, 8-week clinical study to evaluate the efficacy, safety and tolerability of vafidemstat in aggression in adult population with ASD, ADHD and BPD.
Main objective of the trial: To evaluate the safety and tolerability of vafidemstat in adult population with ASD ADHD and BPD.
Secondary objectives of the trial: To investigate the efficacy of vafidemstat in aggression in adult population with ASD ADHD and BPD.
Main inclusion criteria: • age 18-85 • current diagnosis for ASD, ADHD or BPD according to DSM-5 criteria • significant or persistent agitation or aggression that was disruptive to patient's daily living or put the patient in harm's way for at least 3 days per week for at least 4 weeks prior to screening visit
Treatment: All patients received vafidemstat (as free base) at a dose of 1.2 mg/day, administered orally as a single capsule, in a 5 days on/2 days off schedule, during 8 weeks.
Six ASD patients were recruited, but there was one drop-out, and therefore the results as described herein correspond to the 5 ASD subjects eligible for analysis. A summary of the patients recruited in this ASD cohort (demographic data at baseline) can be found in Table 1.
Evaluation of the effect of treatment with vafidemstat on aggression was performed using the NPI A/A as well as the CGI-I and CGI-S scales. The NPI A/A subscale is based on the NPI and consists of the 4 items in the NPI related to aggression/agitation, namely: agitation/aggression, disinhibition, irritability and aberrant motor disturbance. The severity of each of the 4 items in the NPI A/A scale is rated from 1 to 3 (1=mild, 2=moderate, 3=severe) and the NPI A/A score is calculated as the sum of the scores for all 4 items. CGI values reflect clinician's ratings of patient's aggression severity (CGI-S scale) and improvement in aggression from the initiation (baseline) of the treatment (CGI-I scale). In the CGI-I scale, change from initiation of treatment is rated using a seven-point scale, where 1=very much improved since initiation of treatment, 7=very much worse since initiation of treatment, and 4=no change from baseline. In the CGI-S scale, illness/condition severity is rated using a seven-point scale, the higher the score, the more severe the illness/condition, with 1=normal, not at all ill and 7=among the most extremely ill patients.
In addition to assessing its effect on aggression, the effect of treatment with vafidemstat on ASD patients was also evaluated using the total NPI scale and the NPI non-aggression related combined score. The total NPI scale consists of 12 items relating to a variety of neuropsychiatric domains (namely: delusions, hallucinations, agitation/aggression, depression, anxiety, euphoria/elation, apathy/indifference, disinhibition, irritability, aberrant motor disturbance, nighttime behavior, and appetite/eating disorders) and was used to measure global functioning in ASD patients. The severity of each item in the NPI is rated from 1 to 3 (1=mild, 2=moderate, 3=severe) and the total NPI score is calculated as the sum of the scores for all 12 items. The NPI non-aggression related combined score is the NPI combined score for all other items in the NPI not related to aggression or agitation (8 items; namely: delusions, hallucinations, depression, anxiety, euphoria/elation, apathy/indifference, nighttime behavior, and appetite/eating disorders). […]

[1] = adult ASD patients, 5 days on/2 days off, 8 weeks

For `Nc1nnc(CN[C@@H]2C[C@H]2c2ccc(OCc3ccccc3)cc2)o1` [Vafidemstat, 5-((((1R,2S)-2-(4-(benzyloxy)phenyl)cyclopropyl)amino)methyl)-1,3,4-oxadiazol-2-amine], the “total NPI score (12 items), visit 1 to visit 7” value (5 ASD patients, baseline vs 2 months of treatment, p=0.0019 (FIG. 4)) was “statistically significant reduction”, the “NPI non-aggression related combined score (8 items), visit 1 to visit 7” value (5 ASD patients, baseline vs 2 months of treatment, p=0.0142 (FIG. 5)) was “statistically significant reduction” and the “CGI-S value, visit 1 to visit 7” value (5 ASD patients, baseline vs 8 weeks treatment, no paired test could be calculated (FIG. 3)) was “reduction”. The “CGI-I value, visit 1 to visit 7” value (5 ASD patients, baseline vs 8 weeks treatment, p=0.0019 (FIG. 2)) was “statistically significant reductions”, the “NPI A/A (4-item agitation/aggression subscale) value, visit 1 to visit 7” value (5 ASD patients, baseline vs 8 weeks treatment, p=0.0098 (FIG. 1)) was “statistically significant reductions” and the safety and tolerability [1] was “safe and well tolerated, without significant adverse events”. The sedation [1] was “No sedation” and the “CGI-S score, visit 1 to visit 7, cohort with one additional patient” value (n=6 ASD patients, baseline vs 8 weeks treatment, p=0.0006 (FIG. 6)) was “statistically significant reduction”.
